Source: US12594258B2, “Inhibitors of MHC-I Nef downmodulation for treating HIV” (priority 2019, dated 2026)

Experiments:
CD4+ T cells = assay: Cell cycle analysis of CD4+ T cells; assay type: cell-based, human; conditions: 0.5 nM
AP-1:Nef:MHC-I complex = assay: HLA-A2 coimmunoprecipitation in CEM-A2 cells expressing Nef; assay type: cell-based; conditions: 1.25 nM, compared to NH4Cl
Protocol: Immunoprecipitation of CEM cell lysates with BB7.2-conjugated beads was performed as previously described. Briefly, 25×10^6 CEM-A2 cells were transduced with Nef-expressing or control adenovirus. 48 hours post-infection, cells were counted and resuspended at a density of 1×10^6 cells/mL R10 supplemented with 35 mM NH4Cl, 1.25 nM CMA, or solvent control for 24 hours. Cells were pelleted, washed twice in PBS, and lysed in 1% digitonin lysis buffer (1% digitonin (Wako, 043-21371), 100 mM NaCl, 50 mM Tris, pH 7.0, 1 mM CaCl2, and 1 mM MgCl2) as previously described. 1% of the lysate was removed for input controls. […] After pulldown, resin was washed five times in 0.1% digitonin wash buffer, and proteins were eluted by incubating in 150 mM dithiothreitol (Invitrogen) for 30 minutes at 37° C. and analyzed by western blot.
HLA-A2 Coimmunoprecipitation. […] Then, 48 h post infection, cells were counted and resuspended at a density of 1×10^6 cells per milliliter R10 supplemented with 35 mM NH4Cl, 1.25 nM CMA, or solvent control for 24 h. […] After pulldown, resin was washed five times in 0.1% digitonin wash buffer, and proteins were eluted by incubating in 150 mM dithiothreitol (DTT) for 30 min at 37° C. and analyzed by Western blot.

primary CD4+ T cells = assay: MTT and flow cytometric viability assays in primary CD4+ T cells; assay type: cell-based, human
Protocol: CD4^+ T cells were plated at a density of 1×10^5 cells in 200 μL R10-50 in flat-bottom 96-well plates 4 days post-stimulation with PHA. Cells were exposed to titrations of plecomacrolides or solvent controls for 72 hours in culture, at which point viability was assessed relative to solvent by MTT assay in experimental duplicates. Equal volumes of cell culture medium containing CD4^+ T cells were pelleted in 96-well round-bottom plates and incubated in 4.5 mg/mL MTT (Fisher, M6494) in R10 with no Phenol Red at 37° C. until the purple formazan signal was clearly visible. The absorbance of cell pellets resuspended in DMSO was measured at 595 nm on a Molecular Devices Emax precision microplate reader and compared a standard curve of known viable cell numbers to ensure the experimental samples fell within the linear range of the assay.

## C/C=C/[C@H]1O[C@@](O)([C@@H](C)[C@H](O)[C@H](C)[C@H]2OC(=O)/C(OC)=C/C(C)=C/[C@@H](C)[C@@H](O)[C@@H](CC)[C@@H](O)[C@H](C)C/C(C)=C/C=C/[C@@H]2OC)C[C@@H](O[C@H]2C[C@@H](O)[C@H](OC(N)=O)[C@@H](C)O2)[C@@H]1C [CMA, concanamycin A]
HIV Nef; 2.5 nM and 0.5 nM
  restoration of CD4 to the cell surface of Nef-expressing cells: neither dose of CMA restored CD4
  restoration of cell-surface MHC-I in Nef-expressing cells: restored equally in both conditions
HIV Nef; high dose (2.5 nM)
  Nef-mediated degradation of HLA-A2 and CD4 (Western blot): inhibited Nef-mediated degradation of both HLA-A2 and CD4
HIV Nef; low dose (0.5 nM)
  degradation of CD4 (Western blot): did not prevent degradation of CD4
  degradation of MHC-I in Nef-expressing cells (Western blot): MHC-I was not degraded in Nef-expressing cells
CD4+ T cells
  decrease in cells in G2/M: not statistically significant
  increase in the proportion of cells in S phase compared to solvent control: 1.15 fold
AP-1:Nef:MHC-I complex
  abundance of Nef and AP-1 subunits associating with HLA-A2: reproducible reduction in the abundance of Nef, AP-1μ, and AP-1μ1 subunits associating with HLA-A2
Primary CD4+ T cells; 0.5 nM, 24-h incubation
  viability: 95%
Primary CD4+ T cells; Nef activity 24 hours, viability 72 hours
  difference between the 50% effective and toxic concentrations (EC50 and TC50): 11 fold
